Measured values reported in PubChem BioAssay (NCI).
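Step 1: Grow cells in 96-well plates. Step 2: Expose to compound for 48 hours at 5 concentrations. Step 3: Interpolate endpoints linearly; if unreached, use highest concentration. TGI marks complete inhibition of growth.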

Test system: P388 leukemia
Test: NCI tumour cell line growth inhibition, 48 h

Compound	TGI [µM]
COc1cccc2c1[C@H]1CO[C@H]3C4C[C@H](C(=O)O)C([C@@H](C2)N13)N4C (some centres not stated)	5.25
O=NN(CCCl)C(=O)NC1CCC(=O)NC1=O (configuration not stated)	256
